According to patent US10517889B2, “Modulators of SMAD7 expression” (Ionis Pharmaceuticals, Inc., priority 2017, dated 2019):
Strand notation (5' to 3'): a small letter for the sugar, then the base; units joined by * are phosphorothioate-linked, units joined directly phosphodiester-linked; [ ] holds rarer units or linkages, { } end groups; capitals alone tell only the bases. k = constrained ethyl (cEt); [5mC] = 5-methylcytosine; d = 2'-deoxy (DNA)

The substances below were run on human SMAD7 mRNA (assay: Antisense inhibition of human SMAD7 mRNA expression in Hep3B cells by 3-10-3 cEt gapmers, 10,000 nM, electroporation (Example 2)). Conditions: Hep3B cells, 10,000 nM antisense oligonucleotide, electroporation, approximately 24 hours, RT-PCR primer probe set RTS5062, relative to untreated control cells.
Type: cell-based
Method in brief: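 SMAD7 mRNA was measured by real-time PCR (RTS5062) with RiboGreen total-RNA normalization, about 24 h after 10,000 nM gapmer was delivered by electroporation into Hep3B cells at 20,000 per well. Gapmers were 16-mer 3-10-3 cEt, fully phosphorothioate; values are % inhibition versus untreated controls.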

Substance | % Inhibition [%]
800051 (antisense k[5mC]*kA*kG*d[5mC]*dA*d[5mC]*dA*dT*d[5mC]*d[5mC]*dA*d[5mC]*d[5mC]*k[5mC]*kT*kT) [compound 800051] | 20
798890 (k[5mC]*kT*kT*d[5mC]*dA*d[5mC]*dA*dA*dA*dG*d[5mC]*dT*dG*kA*kT*k[5mC]; antisense) [compound 798890] | 40
799934 (antisense kA*k[5mC]*kT*dT*dT*dT*dT*dA*d[5mC]*dT*d[5mC]*dT*dG*kT*k[5mC]*kT) [compound 799934] | 61
798874 (kG*k[5mC]*kA*dG*dG*d[5mC]*dT*dG*dT*dA*d[5mC]*dG*d[5mC]*k[5mC]*kT*kT; antisense) [compound 798874] | 27
800017 (kT*kA*kA*dA*dA*d[5mC]*dA*dG*dT*dA*dT*dG*dT*kG*kT*kT; antisense) [compound 800017] | 11
798895 (kT*kG*kT*dA*dG*d[5mC]*dA*d[5mC]*dT*dG*dG*d[5mC]*d[5mC]*k[5mC]*k[5mC]*kA; antisense) [compound 798895] | 53
800015 (k[5mC]*kT*kT*dT*dA*dA*dG*dG*dT*dG*dT*dT*dG*k[5mC]*k[5mC]*k[5mC]; antisense) [compound 800015] | 26
799978 (k[5mC]*kT*k[5mC]*d[5mC]*dA*d[5mC]*dA*dA*d[5mC]*dG*dG*dA*d[5mC]*kA*kT*k[5mC]; antisense) [compound 799978] | 24
799994 (kA*k[5mC]*kT*dT*dG*dG*dA*dT*dA*dA*dT*dG*dA*kA*kG*kT; antisense) [compound 799994] | 2

Same assay, conditions: Hep3B cells, electroporation with 10,000 nM antisense oligonucleotide, approximately 24 hours, RTS5062, percent inhibition of SMAD7 mRNA relative to untreated control cells

Substance | % Inhibition [%]
799725 (antisense kG*kG*k[5mC]*d[5mC]*dA*d[5mC]*dT*dG*d[5mC]*dA*dG*d[5mC]*d[5mC]*k[5mC]*kT*kA) [compound 799725] | 0
799585 (kA*kG*kA*d[5mC]*dA*dA*dG*dA*dT*dG*dT*dT*dA*kT*k[5mC]*kA; antisense) [compound 799585] | 34
799642 (kG*k[5mC]*kA*dA*dA*dT*d[5mC]*d[5mC]*dT*dT*dT*d[5mC]*d[5mC]*kA*kT*k[5mC]; antisense) [compound 799642] | 53
799784 (k[5mC]*kA*kG*dG*dA*dA*d[5mC]*dT*dG*dG*dT*d[5mC]*d[5mC]*kT*k[5mC]*kT; antisense) [compound 799784] | 19
799290 (antisense kG*kA*kT*dT*dA*dT*dT*dA*dA*dT*dG*dG*dT*k[5mC]*kT*kG) [compound 799290] | 16

Same assay, conditions: Hep3B cells, electroporation with 10,000 nM antisense oligonucleotide, approximately 24 hours, SMAD7 mRNA by RT-PCR (RTS5062), relative to untreated control cells

Substance | % Inhibition [%]
799987 (k[5mC]*kA*kA*dA*d[5mC]*dA*dT*d[5mC]*dA*d[5mC]*d[5mC]*dA*d[5mC]*kG*k[5mC]*k[5mC]; antisense) [compound 799987] | 57
830065 (kA*kA*kT*dG*dG*dT*dG*d[5mC]*dT*d[5mC]*dT*dG*d[5mC]*k[5mC]*k[5mC]*kT; antisense) [compound 830065] | 43
830086 (kT*kT*kT*dA*d[5mC]*dA*dG*dG*dA*dT*dA*d[5mC]*dA*k[5mC]*kT*kT; antisense) [compound 830086] | 40
799376 (antisense kG*k[5mC]*kA*dG*dG*dA*dG*dG*dA*dA*d[5mC]*d[5mC]*dT*kA*k[5mC]*k[5mC]) [compound 799376] | 45
830096 (kA*kA*k[5mC]*dA*dA*d[5mC]*dA*dT*d[5mC]*d[5mC]*dT*dG*dA*kG*k[5mC]*kG; antisense) [compound 830096] | 44
798917 (kG*k[5mC]*kT*d[5mC]*dA*d[5mC]*dG*d[5mC]*dT*d[5mC]*dT*dG*dT*k[5mC]*k[5mC]*k[5mC]; antisense) [compound 798917] | 0
830197 (antisense kG*kT*kT*dA*dA*dT*dG*dG*d[5mC]*d[5mC]*d[5mC]*dA*dG*k[5mC]*k[5mC]*k[5mC]) [compound 830197] | 31
830140 (antisense kT*k[5mC]*k[5mC]*dT*dA*dA*dG*d[5mC]*dT*dA*d[5mC]*dT*dT*kG*kG*kT) [compound 830140] | 12
830014 (antisense kG*kG*kT*dG*d[5mC]*d[5mC]*dA*dG*dT*d[5mC]*dT*d[5mC]*dA*kA*kA*kT) [compound 830014] | 22
800042 (kT*kG*kT*d[5mC]*dA*dG*d[5mC]*d[5mC]*dA*d[5mC]*d[5mC]*dT*dA*kG*kG*k[5mC]; antisense) [compound 800042] | 0

Same assay, conditions: Hep3B cells, electroporation with 10,000 nM antisense oligonucleotide, approximately 24 hours, primer probe set RTS5062, relative to untreated control cells

Substance | % inhibition of SMAD7 mRNA expression [%] | % Inhibition [%]
799088 (antisense kG*k[5mC]*kT*dG*d[5mC]*d[5mC]*d[5mC]*d[5mC]*dG*dG*d[5mC]*dA*dG*k[5mC]*k[5mC]*k[5mC]) [compound 799088] | 24 | –
799173 (antisense k[5mC]*kT*kA*dA*dA*d[5mC]*dA*dT*dG*d[5mC]*dT*d[5mC]*dA*kT*kT*kG) [compound 799173] | – | 18
799219 (kT*kG*kG*d[5mC]*dA*dT*dT*dT*dG*dT*dT*dA*dT*kT*kT*kG; antisense) [compound 799219] | – | 0
798673 (antisense kG*kG*k[5mC]*d[5mC]*d[5mC]*dG*dG*dG*d[5mC]*dA*dG*dG*dA*kG*k[5mC]*kG) [compound 798673] | 15 | –
799217 (kG*kT*kT*dA*dT*dT*dT*dG*d[5mC]*dA*dT*dT*dT*kA*kT*kA; antisense) [compound 799217] | 0 | –
790623 (kG*k[5mC]*kA*dT*dT*dT*dA*dT*dA*dT*dT*dA*dA*kA*kG*k[5mC]; antisense) [compound 790623] | 0 | –
799443 (antisense kT*k[5mC]*kA*dT*dG*d[5mC]*dT*dG*dA*dT*dT*dT*dT*kA*kA*kA) [compound 799443] | 24 | –
799185 (antisense kT*kT*kA*dA*dA*d[5mC]*d[5mC]*dT*dT*dT*dG*dT*dA*kG*kT*kT) [compound 799185] | 0 | –
798676 (antisense k[5mC]*k[5mC]*kA*dT*dG*dA*dA*dG*dA*dA*dG*dT*d[5mC]*kG*kG*kG) [compound 798676] | 21 | –

Same assay, conditions: Hep3B cells, electroporation, 10,000 nM antisense oligonucleotide, approximately 24 hours, RTS5062, relative to untreated control cells

Substance | % inhibition of SMAD7 mRNA expression [%]
799554 (kT*kA*k[5mC]*d[5mC]*dT*dG*dT*dG*dA*dG*d[5mC]*d[5mC]*d[5mC]*kT*kG*kA; antisense) [compound 799554] | 0
799523 (antisense kG*kG*k[5mC]*dA*dG*dA*dA*dG*dG*d[5mC]*dT*d[5mC]*dT*k[5mC]*kT*k[5mC]) [compound 799523] | 28
772801 (kG*kA*k[5mC]*dA*dA*dA*d[5mC]*d[5mC]*dT*dT*d[5mC]*d[5mC]*dG*kA*kA*kA; antisense) [compound 772801] | 34
799658 (antisense kA*kA*k[5mC]*dT*dA*d[5mC]*dA*dA*dG*dT*dG*dG*dT*kT*kG*k[5mC]) [compound 799658] | 22
799615 (kG*kG*kA*dG*dA*dG*dG*dA*d[5mC]*d[5mC]*dG*dG*d[5mC]*k[5mC]*kT*kT; antisense) [compound 799615] | 24

Same assay, conditions: SMAD7 mRNA, Hep3B cells, 10,000 nM antisense oligonucleotide, electroporation, approximately 24 hours, primer probe set RTS5062, relative to untreated control cells

Substance | % Inhibition [%]
790484 (kG*kA*kA*d[5mC]*dA*d[5mC]*dT*dT*dT*dG*d[5mC]*dA*d[5mC]*kA*kG*k[5mC]; antisense) [compound 790484] | 62
790659 (kT*kG*k[5mC]*d[5mC]*dA*dG*dT*d[5mC]*dT*d[5mC]*dA*dA*dA*kT*kG*kG; antisense) [compound 790659] | 27
790741 (kA*kT*kT*dA*dA*dG*d[5mC]*d[5mC]*d[5mC]*dG*d[5mC]*dT*d[5mC]*kT*k[5mC]*kA; antisense) [compound 790741] | 30
772808 (k[5mC]*k[5mC]*k[5mC]*d[5mC]*dA*dT*dT*d[5mC]*dA*dT*dT*dA*dA*kG*k[5mC]*k[5mC]; antisense) [compound 772808] | 34
790637 (kA*k[5mC]*k[5mC]*dT*dA*dG*dT*dT*d[5mC]*dG*d[5mC]*dA*dG*kA*kG*kT; antisense) [compound 790637] | 0
829736 (antisense kG*kG*kA*dG*d[5mC]*dG*dA*dA*d[5mC]*dA*dT*dG*dA*k[5mC]*k[5mC]*kT) [compound 829736] | 41
829727 (antisense kG*k[5mC]*kT*d[5mC]*d[5mC]*dG*dT*dG*dG*d[5mC]*dA*dT*dG*k[5mC]*kG*k[5mC]) [compound 829727] | 35

Same assay, conditions: SMAD7 mRNA, Hep3B cells, electroporation with 10,000 nM antisense oligonucleotide, approximately 24 hours, primer probe set RTS5062, relative to untreated control cells

Substance | % Inhibition [%]
829797 (kG*kG*kT*dT*dG*dA*dT*d[5mC]*dT*dT*d[5mC]*d[5mC]*d[5mC]*kG*kT*kA; antisense) [compound 829797] | 54
829858 (antisense kT*kG*k[5mC]*dT*d[5mC]*d[5mC]*dG*d[5mC]*dA*d[5mC]*d[5mC]*dT*dT*k[5mC]*kT*kG) [compound 829858] | 59
829949 (k[5mC]*k[5mC]*kG*dG*dG*d[5mC]*dA*dG*d[5mC]*d[5mC]*dA*dG*dT*kT*kA*kA; antisense) [compound 829949] | 19
829805 (kT*k[5mC]*kT*dA*dG*dT*dT*d[5mC]*dG*d[5mC]*dA*dG*dA*kG*kT*k[5mC]; antisense) [compound 829805] | 37
